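Compound exposure: 48 hours, 5 concentrations, 96-well plates. Abbreviation: GI50, concentration required for 50% inhibition of growth.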 Active and inactive are the calls of the source. Cut-off read from the data, not from the text of the source: active = GI50 up to about 1.1 µM and inactive = higher.
Assays:
Experiment in all cases: inhibition of tumour cell growth, NCI panel, 48 h
[1] = test system: A498
[2] = test system: HCT-116
[3] = test system: HCT-15
[4] = test system: HOP-92
[5] = test system: KM12
[6] = test system: LOX IMVI
[7] = test system: MCF7
[8] = test system: NCI-H226
[9] = test system: NCI-H23
[10] = test system: NCI-H522
[11] = test system: RPMI-8226
[12] = test system: SF-268
[13] = test system: SK-MEL-28
[14] = test system: SN12C
[15] = test system: SNB-75
[16] = test system: SW-620
[17] = test system: U-251
[18] = test system: UACC-62
[19] = test system: UO-31
[20] = test system: OVCAR-4

| SMILES | GI50 [1] | GI50 [2] | GI50 [3] [µM] | GI50 [4] | GI50 [5] | GI50 [6] | GI50 [7] | GI50 [8] | GI50 [9] | GI50 [10] | GI50 [11] | GI50 [12] | GI50 [13] | GI50 [14] | GI50 [15] | GI50 [16] | GI50 [17] | GI50 [18] | GI50 [19] | GI50 [20] |
| --- | --- | --- | --- | --- | --- | --- | --- | --- | --- | --- | --- | --- | --- | --- | --- | --- | --- | --- | --- | --- |
| CC(=O)CC1(C)OC(N)=C(C#N)C1(C#N)C#N (stereo unspecified) | > 100 µM (inactive) | 71.6 µM (inactive) | 43.9 | 74.6 µM (inactive) | > 100 µM (inactive) | 81.1 µM (inactive) | > 100 µM (inactive) | > 100 µM (inactive) | > 100 µM (inactive) | 48.9 µM (inactive) | > 100 µM (inactive) | > 100 µM (inactive) | > 100 µM (inactive) | > 100 µM (inactive) | 47 µM (inactive) | > 100 µM (inactive) | > 100 µM (inactive) | > 100 µM (inactive) | > 100 µM (inactive) |  |
| C/C=C/c1cc2c(cc1O)CC[C@@H]1[C@@H]2CC[C@]2(C)[C@@H](O)CC[C@@H]12 | 0.146 µM (active) | 0.022 µM (active) | 0.069 |  | 1.24 µM (inactive) | 0.0357 µM (active) | 0.171 µM (active) | 0.226 µM (active) | 0.133 µM (active) | < 0.0142 µM (active) | 0.0264 µM (active) | 0.217 µM (active) | 1.49 µM (inactive) | 0.08 µM (active) | 0.188 µM (active) | 0.04 µM (active) | 0.0315 µM (active) | 0.0246 µM (active) | 0.372 µM (active) | 13.6 µM (inactive) |
| S=C1c2ccccc2N=C(NC2CCCC2)C2CSCN12 (stereo unspecified) | 88.9 µM (inactive) | 80.7 µM (inactive) | > 100 |  | 20.4 µM (inactive) | 75.2 µM (inactive) | 67.6 µM (inactive) | 88.5 µM (inactive) |  | 37.5 µM (inactive) | 75.2 µM (inactive) | 49.2 µM (inactive) | 89.7 µM (inactive) | > 100 µM (inactive) |  | > 100 µM (inactive) | 95.5 µM (inactive) | 43.5 µM (inactive) | 65.2 µM (inactive) | > 100 µM (inactive) |
| C=CC[C@H]1[C@H](O[Si](C)(C)C(C)(C)C)C=CC(=O)[C@@H]1CC(=O)N(Cc1ccccc1)Cc1ccccc1 | 57.5 µM (inactive) | 8.2 µM (inactive) | 9.73 | 2.09 µM (inactive) | 15.9 µM (inactive) | 12.5 µM (inactive) | 19.5 µM (inactive) | 11.7 µM (inactive) | 5.46 µM (inactive) | 5.01 µM (inactive) | 9.89 µM (inactive) | 6.55 µM (inactive) | 49.5 µM (inactive) | 18.8 µM (inactive) |  | 26.7 µM (inactive) | 19.3 µM (inactive) | 13.5 µM (inactive) | 11.7 µM (inactive) | 17.5 µM (inactive) |
| COc1ccc(S(=O)(=O)Nc2ccc(-c3csc(N4C(=O)/C(=C/c5ccccc5[N+](=O)[O-])N=C4c4ccccc4)n3)cc2)cc1Cl | 23.8 µM (inactive) | 38.8 µM (inactive) | 29 | 23.3 µM (inactive) | 50.6 µM (inactive) | 34.8 µM (inactive) | 66.8 µM (inactive) | > 100 µM (inactive) | 20.8 µM (inactive) | 35.9 µM (inactive) |  | 38.8 µM (inactive) | 98.2 µM (inactive) | > 100 µM (inactive) | > 100 µM (inactive) | 46 µM (inactive) | 37.2 µM (inactive) | 34.3 µM (inactive) | 32.3 µM (inactive) | 19.7 µM (inactive) |
| Nc1nc(Cl)cc(NCC2(CO)CC(CCc3ccccc3)C2)n1 (stereo unspecified) | > 100 µM (inactive) |  | > 59.2 | > 28.8 µM (inactive) | 83.9 µM (inactive) | 3.26 µM (inactive) | 9.16 µM (inactive) | > 100 µM (inactive) | 10.5 µM (inactive) | 17.6 µM (inactive) | 2.9 µM (inactive) | > 55.8 µM (inactive) | > 100 µM (inactive) | > 100 µM (inactive) | 20.3 µM (inactive) | > 100 µM (inactive) | > 100 µM (inactive) | > 58.6 µM (inactive) | > 75.2 µM (inactive) | > 29.3 µM (inactive) |
| CC1(C)Cc2c(cnn2-c2ccc(C(F)(F)F)cc2)-c2[nH]c(-c3ccc(O)cc3)nc21 | 20.4 µM (inactive) | 13.1 µM (inactive) | 11.1 | 17.9 µM (inactive) | 13 µM (inactive) | 17.8 µM (inactive) | 14.2 µM (inactive) | 27.2 µM (inactive) | 18.2 µM (inactive) | 8.99 µM (inactive) |  | 9.16 µM (inactive) | 13.7 µM (inactive) | 16.7 µM (inactive) | 8.81 µM (inactive) | 14.5 µM (inactive) | 12.3 µM (inactive) | 16.2 µM (inactive) | 15.3 µM (inactive) | 12.2 µM (inactive) |
| CC(=O)Oc1cc(C(F)(F)F)ccc1C(=O)OC1(C)OC(=O)c2ccc(C(F)(F)F)cc2O1 (stereo unspecified) | > 100 µM (inactive) | > 100 µM (inactive) | > 100 | > 100 µM (inactive) | > 100 µM (inactive) | > 100 µM (inactive) | > 100 µM (inactive) | > 100 µM (inactive) | > 100 µM (inactive) | > 100 µM (inactive) |  | > 100 µM (inactive) | > 100 µM (inactive) | 97.5 µM (inactive) | 9.86 µM (inactive) | > 100 µM (inactive) | > 100 µM (inactive) | > 100 µM (inactive) | > 100 µM (inactive) | > 100 µM (inactive) |
| Cn1c2ncccc2n2c(=O)cc(O)cc12 | 64.7 µM (inactive) | > 100 µM (inactive) | 48 | 18.2 µM (inactive) | 65.8 µM (inactive) | 53.6 µM (inactive) | 33.9 µM (inactive) | 30.1 µM (inactive) | > 100 µM (inactive) | 44 µM (inactive) | > 100 µM (inactive) | 54.2 µM (inactive) | 89.3 µM (inactive) |  | 24.4 µM (inactive) | 82.4 µM (inactive) | > 100 µM (inactive) | 77.3 µM (inactive) | 47.2 µM (inactive) | 40 µM (inactive) |
| CC1=NN(c2cccc(Cl)c2)C(=N/c2nc3ccccc3s2)/C1=C\c1ccccc1O | 23.2 µM (inactive) | 26.7 µM (inactive) | 27.6 | 24.4 µM (inactive) | 38.9 µM (inactive) | 19.9 µM (inactive) | 29.3 µM (inactive) | 22.2 µM (inactive) | 27.5 µM (inactive) | 20 µM (inactive) | 34.8 µM (inactive) | 24.2 µM (inactive) | 27.4 µM (inactive) |  | 25.4 µM (inactive) | 31.6 µM (inactive) | 23.8 µM (inactive) |  | 34 µM (inactive) | 47.5 µM (inactive) |
| CC1(C)CCC[C@]2(C)[C@@H](C=O)C(C=O)=CC[C@@H]12 [POLYGODIAL] | 40.9 µM (inactive) | 28.6 µM (inactive) | 17 | 20.6 µM (inactive) | 14.7 µM (inactive) | 19.1 µM (inactive) | 14.7 µM (inactive) | 20 µM (inactive) | 28 µM (inactive) | 15.8 µM (inactive) | 10.7 µM (inactive) | 15.3 µM (inactive) | 43.2 µM (inactive) | 20.6 µM (inactive) |  | 35.4 µM (inactive) | 19 µM (inactive) | 18.4 µM (inactive) | 16.4 µM (inactive) | 15.8 µM (inactive) |
